Measured values reported in the supplement of paper PMC5908809.

What was measured:
DERL-7 (IL-2 2.5 ng/mL) [1] = experiment: percent inhibition of viability; higher = more inhibition; conditions: 72 h
KAI3 (IL-2 2.5 ng/mL) [2] = experiment: as above; conditions: 72 h
KHYG-1 (IL-2 2.5 ng/mL) [3] = experiment: as above; conditions: 72 h
NK-92 (IL-2 2.5 ng/mL) [4] = experiment: as above; conditions: 72 h
NK-YS (IL-2 2.5 ng/mL) [5] = experiment: as above; conditions: 72 h
NKL (IL-2 2.5 ng/mL) [6] = experiment: as above; conditions: 72 h
SNK-6 (IL-2 2.5 ng/mL) [7] = experiment: as above; conditions: 72 h
YT (IL-2 2.5 ng/mL) [8] = experiment: as above; conditions: 72 h
[9] = tested on: normal primary NK cells, pool 1 (3 donors) (IL-2 2.5 ng/mL); experiment: as above; conditions: 72 h
[10] = tested on: normal primary NK cells, pool 1 (3 donors), resting (IL-2 0 ng/mL); experiment: as above; conditions: 72 h
DERL-7 (IL-2 2.5 ng/mL) [11] = experiment: drug sensitivity score (DSS) (DSS units); higher = more sensitive; extreme values may be limits of the assay; conditions: 72 h
KAI3 (IL-2 2.5 ng/mL) [12] = experiment: as above; conditions: 72 h
KHYG-1 (IL-2 2.5 ng/mL) [13] = experiment: as above; conditions: 72 h
NK-92 (IL-2 2.5 ng/mL) [14] = experiment: as above; conditions: 72 h
NK-YS (IL-2 2.5 ng/mL) [15] = experiment: as above; conditions: 72 h
NKL (IL-2 2.5 ng/mL) [16] = experiment: as above; conditions: 72 h
SNK-6 (IL-2 2.5 ng/mL) [17] = experiment: as above; conditions: 72 h
YT (IL-2 2.5 ng/mL) [18] = experiment: as above; conditions: 72 h
[19] = tested on: normal primary NK cells, pool 1 (3 donors) (IL-2 2.5 ng/mL); experiment: as above; conditions: 72 h
[20] = tested on: normal primary NK cells, pool 1 (3 donors), resting (IL-2 0 ng/mL); experiment: as above; conditions: 72 h
[21] = tested on: normal NK cells expanded with K562-aAPC; experiment: percent inhibition of viability; higher = more inhibition; conditions: 72 h, IL-2 2.5 ng/mL
Method: (§1)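 Drug sensitivity and resistance testing on K562-aAPC-expanded normal NK cells: 5 concentrations (10-fold steps over a 10,000-fold range), 72 h at 37 °C, viability by CellTiter-Glo normalised to DMSO and benzethonium chloride controls; DSS from the fitted curve.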

IMC-1 (IL-2 20 ng/mL) [22] = experiment: as above; conditions: 72 h
[23] = tested on: normal primary NK cells, pool 2 (3 donors) (IL-2 2.5 ng/mL); experiment: as above; conditions: 72 h
[24] = tested on: normal primary NK cells, pool 3 (3 donors) (IL-2 2.5 ng/mL); experiment: as above; conditions: 72 h
[25] = tested on: normal NK cells expanded with K562-aAPC; experiment: drug sensitivity score (DSS) (DSS units); higher = more sensitive; extreme values may be limits of the assay; conditions: 72 h; IL-2 2.5 ng/mL
Method: as §1

IMC-1 (IL-2 20 ng/mL) [26] = experiment: as above; conditions: 72 h
[27] = tested on: normal primary NK cells, pool 2 (3 donors) (IL-2 2.5 ng/mL); experiment: as above; conditions: 72 h
[28] = tested on: normal primary NK cells, pool 3 (3 donors) (IL-2 2.5 ng/mL); experiment: as above; conditions: 72 h

CN(C)C(=O)c1cc2cnc(Nc3ccc(N4CCNCC4)cn3)nc2n1C1CCCC1 [NVP-LEE011] (max concentration tested 10000 nM)
percent inhibition of viability [%]
Conditions	DERL-7 (IL-2 2.5 ng/mL) [1]	KAI3 (IL-2 2.5 ng/mL) [2]	KHYG-1 (IL-2 2.5 ng/mL) [3]	NK-92 (IL-2 2.5 ng/mL) [4]	NK-YS (IL-2 2.5 ng/mL) [5]	NKL (IL-2 2.5 ng/mL) [6]	SNK-6 (IL-2 2.5 ng/mL) [7]	YT (IL-2 2.5 ng/mL) [8]	[9]	[10]
1 nM	-3.18	-3.87	-4.23	-9.54	-2.35	-12.3	-8.9	-3.41	4.32	7.64
10 nM	4.13	1.07	0.91	-16.1	-0.02	-11.2	3.64	-2.71	8.46	12.1
100 nM	1.76	-4.85	-1.06	-4.22	5.18	-15	-2.64	-0.92	8.7	17.7
1000 nM	11.2	4.66	37.5	15.8	22.1	-6.48	12.5	9.6	6.05	14.8
10000 nM	41.6	29.2	81.3	20.8	48	47.9	19.8	42.3	51.8	51.6

Conditions	drug sensitivity score
DERL-7 (IL-2 2.5 ng/mL) [11]	3.81
KAI3 (IL-2 2.5 ng/mL) [12]	2
KHYG-1 (IL-2 2.5 ng/mL) [13]	9.33
NK-92 (IL-2 2.5 ng/mL) [14]	2.18
NK-YS (IL-2 2.5 ng/mL) [15]	4.9
NKL (IL-2 2.5 ng/mL) [16]	2.07
SNK-6 (IL-2 2.5 ng/mL) [17]	1.78
YT (IL-2 2.5 ng/mL) [18]	3.67
[19]	3.77
[20]	6.2

Oc1ncc(N(CCCl)CCCl)c(O)n1 [Uramustine] (max concentration tested 10000 nM)
percent inhibition of viability [%]
Conditions	1 nM	10 nM	100 nM	1000 nM	10000 nM
IMC-1 (IL-2 20 ng/mL) [22]	-9.69	0.32	0.64	0.1	6.18
[21]	-9.68	-7.07	-4	3.8	14.6
[23]	-0.88	5.22	7.92	6.65	14.2
[24]	-4.89	6.36	6.72	4.62	8.5

Conditions	drug sensitivity score
IMC-1 (IL-2 20 ng/mL) [26]	0
[25]	0.53
[27]	0.26
[28]	0

CN(C)C(=O)c1cc2cnc(Nc3ccc(N4CCNCC4)cn3)nc2n1C1CCCC1 [Ribociclib] (max concentration tested 10000 nM)
percent inhibition of viability [%]
Conditions	1 nM	10 nM	100 nM	1000 nM	10000 nM
IMC-1 (IL-2 20 ng/mL) [22]	-7.57	-0.52	-5.29	0.27	7.32
[21]	-3.33	-2.59	0.08	20.6	22.7
[23]	-4.92	-2.8	8.5	5.64	48.2
[24]	-3.67	-4.43	6	1.54	30.9

Conditions	drug sensitivity score
IMC-1 (IL-2 20 ng/mL) [26]	0
[25]	3.05
[27]	3.47
[28]	1.58

O=C(O)C(=O)O.[NH-][C@@H]1CCCC[C@H]1[NH-].[Pt+2] [Oxaliplatin] (max concentration tested 100000 nM)
percent inhibition of viability [%]
Conditions	10 nM	100 nM	1000 nM	10000 nM	100000 nM
IMC-1 (IL-2 20 ng/mL) [22]	-0.91	5.5	6.16	51.1	101
[21]	0.69	4.04	21.3	86.9	101
[23]	-2.45	-3.26	15.2	44.2	93.1
[24]	-8.94	-0.68	20.4	44	97.6

Conditions	drug sensitivity score
IMC-1 (IL-2 20 ng/mL) [26]	11.6
[25]	18.5
[27]	10.7
[28]	11.3

CC1(C)CCC(CN2CCN(c3ccc(C(=O)NS(=O)(=O)c4ccc(NCC5CCOCC5)c([N+](=O)[O-])c4)c(Oc4cnc5[nH]ccc5c4)c3)CC2)=C(c2ccc(Cl)cc2)C1 [Venetoclax] (max concentration tested 1000 nM)
percent inhibition of viability [%]
Conditions	0.1 nM	1 nM	10 nM	100 nM	1000 nM
IMC-1 (IL-2 20 ng/mL) [22]	-3.1	2.12	-1.24	-0.5	5.01
[21]	3.87	-7.3	-4.26	-4.09	18.9
[23]	-15.6	-3.12	0.73	7.62	31.3
[24]	-10.2	-7.52	-5.3	1.76	14.7

Conditions	drug sensitivity score
IMC-1 (IL-2 20 ng/mL) [26]	0
[25]	0.35
[27]	2.56
[28]	0.37

CCN(CC)CCCC(C)Nc1c2ccc(Cl)cc2nc2ccc(OC)cc12 (centres undefined) [Mepacrine] (max concentration tested 50000 nM)
percent inhibition of viability [%]
Conditions	5 nM	50 nM	500 nM	5000 nM	50000 nM
IMC-1 (IL-2 20 ng/mL) [22]	-0.62	-1.1	2.08	100	101
[21]	-2.84	-3.46	-4.79	100	101
[23]	-13.9	-3.31	9.39	98	101
[24]	-11.7	0.46	1.96	98.8	101

Conditions	drug sensitivity score
IMC-1 (IL-2 20 ng/mL) [26]	18.2
[25]	17.6
[27]	19.4
[28]	18.1

CC1(C)CCC(CN2CCN(c3ccc(C(=O)NS(=O)(=O)c4ccc(NCC5CCOCC5)c([N+](=O)[O-])c4)c(Oc4cnc5[nH]ccc5c4)c3)CC2)=C(c2ccc(Cl)cc2)C1 [Venetoclax] (max concentration tested 10000 nM)
percent inhibition of viability [%]
Conditions	DERL-7 (IL-2 2.5 ng/mL) [1]	KAI3 (IL-2 2.5 ng/mL) [2]	KHYG-1 (IL-2 2.5 ng/mL) [3]	NK-92 (IL-2 2.5 ng/mL) [4]	NK-YS (IL-2 2.5 ng/mL) [5]	NKL (IL-2 2.5 ng/mL) [6]	SNK-6 (IL-2 2.5 ng/mL) [7]	YT (IL-2 2.5 ng/mL) [8]	[9]	[10]
1 nM	1.21	27.7	-4.77	-4.75	4.6	5.96	10.4	3.82	-1.92	-13.2
10 nM	17	55.8	-0.91	2.95	3.22	19.3	48.6	7.84	-1.34	53.6
100 nM	36.3	71	1.35	18.2	6.71	45.6	50.4	10.9	4.44	87.3
1000 nM	54.6	91.3	29.1	17	25.8	55.5	74.7	67.4	36.7	91.6
10000 nM	87.8	98.7	82.5	66.6	82.6	85.8	96.6	88.4	67.1	91.2

Conditions	drug sensitivity score
DERL-7 (IL-2 2.5 ng/mL) [11]	16.2
KAI3 (IL-2 2.5 ng/mL) [12]	33.6
KHYG-1 (IL-2 2.5 ng/mL) [13]	8.64
NK-92 (IL-2 2.5 ng/mL) [14]	5.65
NK-YS (IL-2 2.5 ng/mL) [15]	7.95
NKL (IL-2 2.5 ng/mL) [16]	18.4
SNK-6 (IL-2 2.5 ng/mL) [17]	26.1
YT (IL-2 2.5 ng/mL) [18]	14.1
[19]	8.04
[20]	34.5

Oc1ncc(N(CCCl)CCCl)c(O)n1 [Uracil mustard] (max concentration tested 10000 nM)
percent inhibition of viability [%]
Conditions	DERL-7 (IL-2 2.5 ng/mL) [1]	KAI3 (IL-2 2.5 ng/mL) [2]	KHYG-1 (IL-2 2.5 ng/mL) [3]	NK-92 (IL-2 2.5 ng/mL) [4]	NK-YS (IL-2 2.5 ng/mL) [5]	NKL (IL-2 2.5 ng/mL) [6]	SNK-6 (IL-2 2.5 ng/mL) [7]	YT (IL-2 2.5 ng/mL) [8]	[9]	[10]
1 nM	-3.55	-2.41	-4.85	-13	-4.38	-13	-5.93	-3.44	1.1	1.93
10 nM	-2.92	-4.28	-7.99	2.85	-2.31	-8.44	-12.3	-2.84	14.8	12.8
100 nM	0.29	4.07	-5.32	-5.3	-0.87	1.52	-16.6	-1.58	6.41	14.2
1000 nM	1.68	10.1	0.5	11.1	8.35	7.38	-20.1	6.78	7.51	7.77
10000 nM	-8.73	23.1	6.88	19.6	16.4	14.1	-11.1	8.3	12.4	16.2

Conditions	drug sensitivity score
DERL-7 (IL-2 2.5 ng/mL) [11]	0
KAI3 (IL-2 2.5 ng/mL) [12]	1.5
KHYG-1 (IL-2 2.5 ng/mL) [13]	0
NK-92 (IL-2 2.5 ng/mL) [14]	1.65
NK-YS (IL-2 2.5 ng/mL) [15]	1.03
NKL (IL-2 2.5 ng/mL) [16]	0.45
SNK-6 (IL-2 2.5 ng/mL) [17]	0
YT (IL-2 2.5 ng/mL) [18]	0
[19]	0
[20]	1.83

CC(=O)N(O)CCCCCNC(=O)CCC(=O)N(O)CCCCCNC(=O)CCC(=O)N(O)CCCCCN [Deferoxamine] (max concentration tested 10000 nM)
percent inhibition of viability [%]
Conditions	1 nM	10 nM	100 nM	1000 nM	10000 nM
IMC-1 (IL-2 20 ng/mL) [22]	-6.25	-3.2	-4.14	-0.7	97.2
[21]	-3.82	-8.67	-5.64	22.8	86.1
[23]	-2.8	5.46	3.49	11.1	42.7
[24]	-1.79	6.03	10.4	16.1	53.2

Conditions	drug sensitivity score
IMC-1 (IL-2 20 ng/mL) [26]	5.37
[25]	8.23
[27]	3.84
[28]	4.59
